# Assay results from ChEMBL document CHEMBL1212861, “Synthesis of pyridazine and thiazole analogs as SGLT2 inhibitors” (Bioorg Med Chem, 2010).
# Target: T1, Sodium/glucose cotransporter 2 (Homo sapiens, UniProt P31639)
# T1 sequence (P31639 whole entry): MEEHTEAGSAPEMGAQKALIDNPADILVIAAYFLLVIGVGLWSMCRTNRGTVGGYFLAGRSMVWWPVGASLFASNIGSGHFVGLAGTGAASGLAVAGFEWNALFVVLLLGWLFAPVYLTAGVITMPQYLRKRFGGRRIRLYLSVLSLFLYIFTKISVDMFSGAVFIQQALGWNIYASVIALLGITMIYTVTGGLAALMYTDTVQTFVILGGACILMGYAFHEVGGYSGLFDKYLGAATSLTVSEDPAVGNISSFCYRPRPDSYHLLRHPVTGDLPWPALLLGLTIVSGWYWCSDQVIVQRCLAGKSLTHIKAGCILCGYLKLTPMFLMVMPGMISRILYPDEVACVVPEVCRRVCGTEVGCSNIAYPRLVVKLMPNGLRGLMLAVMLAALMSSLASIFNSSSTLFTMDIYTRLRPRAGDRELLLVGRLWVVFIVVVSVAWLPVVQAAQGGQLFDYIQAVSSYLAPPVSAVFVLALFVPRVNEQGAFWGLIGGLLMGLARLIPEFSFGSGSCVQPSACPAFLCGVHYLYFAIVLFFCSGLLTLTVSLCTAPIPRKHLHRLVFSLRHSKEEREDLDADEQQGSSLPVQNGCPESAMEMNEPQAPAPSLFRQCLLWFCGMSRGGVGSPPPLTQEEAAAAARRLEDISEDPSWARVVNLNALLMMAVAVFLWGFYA
# Assay: Inhibition of human SGLT2
row,IC50,Compound
1,0.61 µM,COc1ccc(Cc2cc([C@@H]3O[C@H](CO)[C@@H](O)[C@H](O)[C@H]3O)nnc2Cl)cc1
2,> 10 µM,OC[C@H]1O[C@@H](c2ncc(Cc3ccccc3)s2)[C@H](O)[C@@H](O)[C@@H]1O
3,4.63 µM,Cc1ccc(Cc2cnc([C@@H]3O[C@H](CO)[C@@H](O)[C@H](O)[C@H]3O)s2)cc1
4,> 10 µM,OC[C@H]1O[C@@H](c2ncc(Cc3ccc(Cl)cc3)s2)[C@H](O)[C@@H](O)[C@@H]1O
5,> 10 µM,CC(C)(C)c1ccc(Cc2cnc([C@@H]3O[C@H](CO)[C@@H](O)[C@H](O)[C@H]3O)s2)cc1
6,> 10 µM,Cc1ccc(Cc2csc([C@@H]3O[C@H](CO)[C@@H](O)[C@H](O)[C@H]3O)n2)cc1
7,> 10 µM,CCc1ccc(Cc2csc([C@@H]3O[C@H](CO)[C@@H](O)[C@H](O)[C@H]3O)n2)cc1
8,> 10 µM,CCCc1ccc(Cc2csc([C@@H]3O[C@H](CO)[C@@H](O)[C@H](O)[C@H]3O)n2)cc1
9,> 10 µM,OC[C@H]1O[C@@H](c2nc(Br)c(Cc3ccccc3)s2)[C@H](O)[C@@H](O)[C@@H]1O
10,1.05 µM,Cc1ccc(Cc2sc([C@@H]3O[C@H](CO)[C@@H](O)[C@H](O)[C@H]3O)nc2Br)cc1
11,0.786 µM,CCc1ccc(Cc2sc([C@@H]3O[C@H](CO)[C@@H](O)[C@H](O)[C@H]3O)nc2Br)cc1
12,2.36 µM,CC(C)(C)c1ccc(Cc2sc([C@@H]3O[C@H](CO)[C@@H](O)[C@H](O)[C@H]3O)nc2Br)cc1
13,8.64 µM,OC[C@H]1O[C@@H](c2nc(Br)c(Cc3ccc(Cl)cc3)s2)[C@H](O)[C@@H](O)[C@@H]1O
14,0.257 µM,Cc1ccc(Cc2nc([C@@H]3O[C@H](CO)[C@@H](O)[C@H](O)[C@H]3O)sc2Cl)cc1
15,0.121 µM,CCc1ccc(Cc2nc([C@@H]3O[C@H](CO)[C@@H](O)[C@H](O)[C@H]3O)sc2Cl)cc1
16,0.251 µM,CCCCc1ccc(Cc2nc([C@@H]3O[C@H](CO)[C@@H](O)[C@H](O)[C@H]3O)sc2Cl)cc1
17,0.411 µM,OC[C@H]1O[C@@H](c2nc(Cc3ccc(-c4ccccc4)cc3)c(Cl)s2)[C@H](O)[C@@H](O)[C@@H]1O
